Earlier results in EP2151446B1, “Process for the preparation of bidentate schiff base ruthenium catalysts containing a salicylaldimine-type ligand” (Rimtec Corporation, priority 2008, dated 2010).

Conditions: in water

Row | pKb | SMILES
1 | about 3.69 | O=C([O-])[O-].[Cu+2] [CuCO3]
2 | about 3.69 | O=C([O-])[O-].[K+].[K+] [Entry K2CO3]
3 | about 3.69 | O=C([O-])[O-].[Li+].[Li+] [Li2CO3]
4 | about 3.69 | O=C([O-])[O-].[Na+].[Na+] [Na2CO3]
